From patent US20250195521A1 (Revolution Medicines, Inc., priority 2020, published 2025)

Assays:
KRAS WT = KRAS WT (Homo sapiens (Human), UniProt P01116+P62937); assay: Ras-Raf disruption/FRET/MOA assay (BRAF RBD, Cyclophilin A); assay type: biochemical; conditions: read-out: KRAS WT FRET data IC50
Procedure, shortened: (§1)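 TR-FRET read after 1.5 h with 10 nM anti-His Eu-W1024 and 50 nM anti-GST APC, following 3 h at 25 °C of GMPPNP-loaded His6-Ras (12.5 nM), GST-BRAF RBD (50 nM) and Cyclophilin A (25 μM) with compound from 30 μM final, 10 points, 3-fold. IC50 reported; pH 7.3 HEPES, 100 mM NaCl.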

KRAS G13C = KRAS G13C (Homo sapiens (Human), UniProt P01116+P62937, G13C); assay: as above; assay type: biochemical; conditions: read-out: KRAS G13C FRET IC50
Sequence of KRAS G13C (P01116 other isoform, or with tags, fused parts or gaps G13C): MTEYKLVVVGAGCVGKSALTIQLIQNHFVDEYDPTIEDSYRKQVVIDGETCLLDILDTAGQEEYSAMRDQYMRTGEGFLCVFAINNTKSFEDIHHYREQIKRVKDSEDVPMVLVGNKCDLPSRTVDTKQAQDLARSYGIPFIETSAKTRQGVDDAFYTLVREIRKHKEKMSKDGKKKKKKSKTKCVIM
Sequence of KRAS G13C (P62937 whole entry): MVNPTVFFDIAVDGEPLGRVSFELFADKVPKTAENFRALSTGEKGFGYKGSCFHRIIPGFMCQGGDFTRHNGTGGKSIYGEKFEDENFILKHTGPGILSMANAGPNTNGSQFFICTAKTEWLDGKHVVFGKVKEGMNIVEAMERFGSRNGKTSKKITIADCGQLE
Procedure, shortened: as §1

KRAS G13D = KRAS G13D (Homo sapiens (Human), UniProt P01116+P62937, G13D); assay: as above; assay type: biochemical; conditions: read-out: KRAS G13D FRET data IC50
Sequence of KRAS G13D (P01116 other isoform, or with tags, fused parts or gaps G13D): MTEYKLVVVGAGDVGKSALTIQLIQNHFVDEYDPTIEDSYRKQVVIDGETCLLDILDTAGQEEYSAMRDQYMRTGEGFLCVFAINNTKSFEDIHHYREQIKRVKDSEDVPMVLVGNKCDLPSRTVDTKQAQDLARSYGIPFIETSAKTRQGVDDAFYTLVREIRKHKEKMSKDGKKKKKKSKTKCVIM
Sequence of KRAS G13D (P62937 whole entry): as the sequence (P62937 whole entry) above
Procedure, shortened: as §1

KRAS G12C = KRAS G12C (Homo sapiens (Human), UniProt P01116+P62937, G12C); assay: as above; assay type: biochemical; conditions: read-out: KRAS G12C FRET IC50
Sequence of KRAS G12C (P01116-2 other isoform, or with tags, fused parts or gaps G12C): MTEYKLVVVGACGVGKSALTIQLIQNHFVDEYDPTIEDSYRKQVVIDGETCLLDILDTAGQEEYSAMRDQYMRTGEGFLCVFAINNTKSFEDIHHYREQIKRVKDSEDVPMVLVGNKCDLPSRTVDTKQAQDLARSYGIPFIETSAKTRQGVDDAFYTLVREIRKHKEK
Sequence of KRAS G12C (P62937 whole entry): as the sequence (P62937 whole entry) above
Procedure, shortened: as §1

NRAS G12C = NRAS G12C (Homo sapiens (Human), UniProt P01111+P62937, G12C); assay: as above; assay type: biochemical; conditions: read-out: NRAS G12C FRET data IC50
Sequence of NRAS G12C (P01111 whole entry G12C): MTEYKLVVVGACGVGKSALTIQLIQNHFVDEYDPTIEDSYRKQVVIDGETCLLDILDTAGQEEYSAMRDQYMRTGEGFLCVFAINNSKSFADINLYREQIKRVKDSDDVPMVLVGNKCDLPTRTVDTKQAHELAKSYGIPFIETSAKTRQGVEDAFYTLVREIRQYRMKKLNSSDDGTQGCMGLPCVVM
Sequence of NRAS G12C (P62937 whole entry): as the sequence (P62937 whole entry) above
Procedure, shortened: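 Ras-GMPPNP (12.5 nM), BRAF RBD (50 nM) and 25 μM Cyclophilin A were incubated with compound for 3 h at 25° C, then detected 1.5 h with anti-His Eu and anti-GST APC; IC50 values follow from the reduced TR-FRET ratio.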

KRAS G12S = KRAS G12S (Homo sapiens (Human), UniProt P01116+P62937, G12S); assay: as above; assay type: biochemical; conditions: read-out: KRAS G12S FRET IC50
Sequence of KRAS G12S (P01116 other isoform, or with tags, fused parts or gaps G12S): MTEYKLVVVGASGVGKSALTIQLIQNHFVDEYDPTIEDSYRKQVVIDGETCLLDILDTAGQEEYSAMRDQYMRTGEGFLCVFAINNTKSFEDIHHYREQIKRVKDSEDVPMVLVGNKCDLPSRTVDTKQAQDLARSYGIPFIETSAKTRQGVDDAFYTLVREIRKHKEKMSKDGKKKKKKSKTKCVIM
Sequence of KRAS G12S (P62937 whole entry): as the sequence (P62937 whole entry) above
Procedure, shortened: as §1

KRAS G12V = KRAS G12V (Homo sapiens (Human), UniProt P01116+P62937, G12V); assay: as above; assay type: biochemical; conditions: read-out: KRAS G12V FRET IC50
Sequence of KRAS G12V (P01116 other isoform, or with tags, fused parts or gaps G12V): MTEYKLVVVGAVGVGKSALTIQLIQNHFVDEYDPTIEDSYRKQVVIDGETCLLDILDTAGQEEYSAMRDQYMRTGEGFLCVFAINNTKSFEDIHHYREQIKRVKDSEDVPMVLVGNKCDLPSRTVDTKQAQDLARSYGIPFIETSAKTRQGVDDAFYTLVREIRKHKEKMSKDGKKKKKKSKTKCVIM
Sequence of KRAS G12V (P62937 whole entry): as the sequence (P62937 whole entry) above
Procedure, shortened: as §1

KRAS G12D = KRAS G12D (Homo sapiens (Human), UniProt P01116+P62937, G12D); assay: as above; assay type: biochemical; conditions: read-out: KRAS G12D FRET IC50
Sequence of KRAS G12D (P01116 other isoform, or with tags, fused parts or gaps G12D): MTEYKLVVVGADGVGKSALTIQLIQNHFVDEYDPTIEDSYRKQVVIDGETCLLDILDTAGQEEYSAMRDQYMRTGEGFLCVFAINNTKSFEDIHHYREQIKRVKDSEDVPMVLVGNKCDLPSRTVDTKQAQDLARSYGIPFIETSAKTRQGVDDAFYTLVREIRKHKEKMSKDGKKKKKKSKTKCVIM
Sequence of KRAS G12D (P62937 whole entry): as the sequence (P62937 whole entry) above
Procedure, shortened: as §1

[1] = test system: NCI-H358 cells (K-Ras G12C); assay: CellTiter-Glo cell viability, NCI-H358; assay type: cell-based, human; conditions: Homo sapiens, NCI-H358, 120 h, K-Ras G12C, 5-day treatment; read-out: H358 Cell Viability IC50
Procedure, shortened: (§2)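 Viability is read as luminescence after five days of compound exposure, with plates first equilibrated to room temperature for roughly 30 minutes. Each signal is expressed as a percentage of the mean DMSO control, and curves are fitted by four-parameter logistic regression.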

[2] = test system: Capan-1 cells (K-Ras G12V); assay: CellTiter-Glo cell viability, Capan-1; assay type: cell-based, human; conditions: Homo sapiens, CAPAN-1, 120 h, K-Ras G12V, 5-day treatment; read-out: Capan-1 Cell Viability IC50
Procedure, shortened: as §2

[3] = molecular target: K-Ras G12C(GMP-PNP) binding to BRAF RBD (Homo sapiens (Human), UniProt P01116+P62937, G12C); assay: Disruption of BRAF RBD interaction with K-Ras (FRET / MOA assay), K-Ras G12C; assay type: biochemical; conditions: read-out: KRAS G12C FRET IC50
Sequence of K-Ras G12C(GMP-PNP) binding to BRAF RBD (P01116 other isoform, or with tags, fused parts or gaps G12C): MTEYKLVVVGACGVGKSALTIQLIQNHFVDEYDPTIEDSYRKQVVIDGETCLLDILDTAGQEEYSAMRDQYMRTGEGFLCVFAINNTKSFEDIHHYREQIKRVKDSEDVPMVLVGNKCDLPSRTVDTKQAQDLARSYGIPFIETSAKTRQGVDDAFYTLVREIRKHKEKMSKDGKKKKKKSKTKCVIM
Sequence of K-Ras G12C(GMP-PNP) binding to BRAF RBD (P62937 whole entry): as the sequence (P62937 whole entry) above
Procedure, shortened: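 Cpd 10-pt 3-fold dilution, top 30 μM final; Ras/CypA/BRAF RBD mix 3 h, 25° C. Add anti-His Eu-W1024 10 nM + anti-GST APC 50 nM final, 1.5 h. Readout TR-FRET ratio decrease vs DMSO → IC50.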

NCI-H358 (K-Ras G12C) = assay: CellTiter-Glo cell viability assay, NCI-H358; assay type: cell-based, human; conditions: Homo sapiens, NCI-H358, 120 h, 5-day treatment; read-out: H358 Cell Viability assay data (K-Ras G12C, IC50)
Procedure, shortened: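 Viability is measured as ATP-dependent luminescence (CellTiter-Glo) five days into compound treatment. Responses are normalized to vehicle (DMSO) wells and fitted by four-parameter logistic regression.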

KRAS Q61H = KRAS Q61H (Homo sapiens (Human), UniProt P01116+P62937, Q61H); assay: Ras-Raf disruption/FRET/MOA assay (BRAF RBD, Cyclophilin A); assay type: biochemical
Sequence of KRAS Q61H (P01116 other isoform, or with tags, fused parts or gaps Q61H): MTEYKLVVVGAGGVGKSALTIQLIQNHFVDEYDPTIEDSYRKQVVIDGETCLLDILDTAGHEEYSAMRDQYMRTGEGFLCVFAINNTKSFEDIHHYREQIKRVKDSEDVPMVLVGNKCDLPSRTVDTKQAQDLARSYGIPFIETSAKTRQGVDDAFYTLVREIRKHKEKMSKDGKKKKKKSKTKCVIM
Sequence of KRAS Q61H (P62937 whole entry): as the sequence (P62937 whole entry) above
Procedure, shortened: as §1

Sequence of KRAS WT (P01116 other isoform, or with tags, fused parts or gaps): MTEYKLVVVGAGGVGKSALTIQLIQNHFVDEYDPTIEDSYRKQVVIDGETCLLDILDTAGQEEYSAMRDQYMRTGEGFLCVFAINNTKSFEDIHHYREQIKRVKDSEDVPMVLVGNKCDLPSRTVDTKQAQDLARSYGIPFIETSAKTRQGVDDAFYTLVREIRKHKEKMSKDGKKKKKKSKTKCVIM
Sequence of KRAS WT (P62937 whole entry): as the sequence (P62937 whole entry) above

IC50 (KRAS WT) | IC50 (KRAS G13C) | IC50 (KRAS G13D) | IC50 (KRAS G12C) | IC50 (NRAS G12C) | IC50 (KRAS G12S) | IC50 (KRAS G12V) | IC50 (KRAS G12D) | IC50 [1] | IC50 [3] | IC50 (NCI-H358 (K-Ras G12C)) | IC50 (KRAS Q61H) | SMILES | IC50 [2]
100 to 1000 nM | 100 to 1000 nM | 100 to 1000 nM | 100 to 1000 nM | 100 to 1000 nM | 100 to 1000 nM | 100 to 1000 nM | 100 to 1000 nM | 100 to 1000 nM | 100 to 1000 nM | > 10000 nM | – | CCn1c(-c2cccnc2[C@H](C)OC)c2c3cc(ccc31)-c1cc(O)cc(c1)C[C@H](NC(=O)[C@H](C(C)C)N(C)C(=O)[C@H]1C[C@@H]1F)C(=O)N1CCC[C@H](N1)C(=O)OCC(C)(C)C2 [Compound A161] | 100 to 1000 nM
10 to 100 nM | 10 to 100 nM | 10 to 100 nM | 10 to 100 nM | 10 to 100 nM | 10 to 100 nM | 10 to 100 nM | 10 to 100 nM | 10 to 100 nM | 10 to 100 nM | 100 to 1000 nM | – | CCn1c(-c2cccnc2[C@H](C)OC)c2c3cc(ccc31)-c1cc(O)cc(c1)C[C@H](NC(=O)[C@H](C(C)C)N(C)C(=O)[C@@H]1[C@@H]3CNC[C@@H]31)C(=O)N1CCC[C@H](N1)C(=O)OCC(C)(C)C2 [Compound A164] | 100 to 1000 nM
10 to 100 nM | 10 to 100 nM | 10 to 100 nM | 10 to 100 nM | 10 to 100 nM | 100 to 1000 nM | 100 to 1000 nM | 10 to 100 nM | 100 to 1000 nM | > 10000 nM | > 10000 nM | – | CCn1c(-c2cccnc2[C@H](C)OC)c2c3cc(ccc31)-c1cc(O)cc(c1)C[C@H](NC(=O)[C@H](C(C)C)N(C)C(=O)[C@H]1CN[C@@H]3CCO[C@H]13)C(=O)N1CCC[C@H](N1)C(=O)OCC(C)(C)C2 [Compound A231] | 1000 to 10000 nM
10 to 100 nM | 100 to 1000 nM | 100 to 1000 nM | 10 to 100 nM | 10 to 100 nM | 100 to 1000 nM | 10 to 100 nM | 100 to 1000 nM | – | – | – | 10 to 100 nM | CCn1c(-c2cccnc2[C@H](C)OC)c2c3cc(ccc31)-c1csc(n1)C[C@H](NC(=O)[C@H](C(C)C)N(C)C(=O)N1CC([C@@H](C)OC)C1)C(=O)N1CCC[C@H](N1)C(=O)OCC(C)(C)C2 [Compound A278] | 10 to 100 nM
100 to 1000 nM | 100 to 1000 nM | 100 to 1000 nM | 100 to 1000 nM | 100 to 1000 nM | 100 to 1000 nM | 100 to 1000 nM | 100 to 1000 nM | 100 to 1000 nM | 100 to 1000 nM | 100 to 1000 nM | – | CCn1c(-c2cccnc2[C@H](C)OC)c2c3cc(ccc31)-c1csc(n1)C[C@H](NC(=O)[C@H](C(C)C)N(C)C(=O)N1C[C@@H]3C[C@H]1CN3C)C(=O)N1CCC[C@H](N1)C(=O)OCC(C)(C)C2 [Compound A314] | 100 to 1000 nM
